Test results as given in patent US10258041B2, “Substituted pyrazolylpyrazole derivative and use of same as herbicide” (KYOYU AGRI CO., LTD., priority 2015, dated 2019).

Assays:
Assay type in all cases: in vivo
Echinochloa crus-galli = experiment: Paddy herbicidal activity test; conditions: irrigated pot, treated at 3.5 leaf stage of Echinochloa crus-galli, 30 days
Procedure: (§1) Rice paddy soil was filled into a 1/10000 are pot followed by the addition of suitable amounts of water and chemical fertilizer, kneading, seeding with Echinochloa crus-galli, Monochoria vaginalis and Scirpus juncoides and maintaining in an irrigated state at a water depth of 3 cm. Wettable powders of Target Compound (I) shown in Table 1 prepared in compliance with the preparation examples were diluted with a suitable amount of water, rice plants in the 2.0 leaf stage were transplanted during 3.5 leaf stage of Echinochloa crus-galli, and treated by dropping in chemical in the prescribed amount per 10 are using a pipette. After treating for 30 days in a glass greenhouse at an average atmospheric temperature of […], the herbicidal efficacy thereof was investigated. Evaluation of herbicidal efficacy was carried out by comparing growth inhibition rate (%) with an untreated group, while evaluation of chemical damage was carried out by comparing growth inhibition rate (%) with the state of a complete eradication group, and were evaluated at 11 levels indicated below. • 0 (exponent): 0% to less than 10% (growth inhibition rate) • 1: 10% to less than 20% • 2: 20% to less than 30% • 3: 30% to less than 40% • 4: 40% to less than 50% • 5: 50% to less than 60% • 6: 60% to less than 70% • 7: 70% to less than 80% • 8: 80% to less than 90% • 9: 90% to less than 100% • 10: 100%

Monochoria vaginalis = experiment: Paddy herbicidal activity test; conditions: irrigated pot, treated at 3.5 leaf stage of Echinochloa crus-galli, 30 days
Procedure: as §1

Scirpus juncoides = experiment: Paddy herbicidal activity test; conditions: irrigated pot, treated at 3.5 leaf stage of Echinochloa crus-galli, 30 days
Procedure: as §1

Oryza sativa = experiment: Paddy herbicidal activity test, chemical damage to transplanted rice; conditions: rice transplanted in 2.0 leaf stage, 30 days
Procedure: as §1

Amaranthus retroflexus [1] = experiment: Farming soil treatment test; conditions: soil surface spray prior to weed growth, 30 days, 30° C.
Procedure: (§2) Evaluation of herbicidal efficacy was carried out by comparing growth inhibition rate (%) with an untreated group, while evaluation of chemical damage was carried out by comparing growth inhibition rate (%) with the state of a complete eradication group, and were evaluated at 11 levels indicated below. • 0 (exponent): 0% to less than 10% (growth inhibition rate) • 1: 10% to less than 20% • 2: 20% to less than 30% • 3: 30% to less than 40% • 4: 40% to less than 50% • 5: 50% to less than 60% • 6: 60% to less than 70% • 7: 70% to less than 80% • 8: 80% to less than 90% • 9: 90% to less than 100% • 10: 100% Field soil was filled into a 1/6000 are pot followed by seeding with Digitaria ciliaris, Chenopodium album and Amraranthus retroflexus and covering with soil. Wettable powders of compounds of formula (I) shown in Table 1 prepared in compliance with the preparation examples were diluted with water to the prescribed amount of chemical and uniformly sprayed onto each soil surface layer using 100 liters of sprayed water per 10 are prior to weed growth following seeding. After treating for 30 days in a glass greenhouse at an average atmospheric temperature of 30° C., the herbicidal efficacy thereof was investigated. Evaluation of herbicidal efficacy was carried out in the same manner as the above-mentioned Test Example 1,

Chenopodium album [2] = experiment: Farming soil treatment test; conditions: soil surface spray prior to weed growth, 30 days, 30° C.
Procedure: as §2

Digitaria ciliaris [3] = experiment: Farming soil treatment test; conditions: soil surface spray prior to weed growth, 30 days, 30° C.
Procedure: as §2

Amaranthus retroflexus [4] = experiment: Weed foliar treatment test (Test 3); conditions: foliar spray at 1.0 to 2.0 leaf stage of Digitaria ciliaris, 3 weeks, 25° C.
Procedure: (§3) Evaluation of herbicidal efficacy was carried out by comparing growth inhibition rate (%) with an untreated group, while evaluation of chemical damage was carried out by comparing growth inhibition rate (%) with the state of a complete eradication group, and were evaluated at 11 levels indicated below. • 0 (exponent): 0% to less than 10% (growth inhibition rate) • 1: 10% to less than 20% • 2: 20% to less than 30% • 3: 30% to less than 40% • 4: 40% to less than 50% • 5: 50% to less than 60% • 6: 60% to less than 70% • 7: 70% to less than 80% • 8: 80% to less than 90% • 9: 90% to less than 100% • 10: 100% Soil was filled into a 1/6000 are pot followed by seeding with Digitaria ciliaris, Chenopodium album and Amaranthus retroflexus, covering with soil, and cultivating in a glass greenhouse at an average atmospheric temperature of 25° C. Wettable powders of Target Compound (I) shown in Table 1 prepared in compliance with the preparation examples were diluted with water to the prescribed amount of chemical and uniformly sprayed onto the weeds using 150 liters of sprayed water per 10 are when Digitaria ciliaris had grown to the 1.0 to 2.0 leaf stage. After treating for 3 weeks in a glass greenhouse at an average atmospheric temperature of 25° C., the herbicidal efficacy thereof was investigated. Evaluation of herbicidal efficacy was carried out in the same manner as the above-mentioned Test Example 1.

Chenopodium album [5] = experiment: Weed foliar treatment test (Test 3); conditions: foliar spray at 1.0 to 2.0 leaf stage of Digitaria ciliaris, 3 weeks, 25° C.
Procedure: as §3

Digitaria ciliaris [6] = experiment: Weed foliar treatment test (Test 3); conditions: foliar spray at 1.0 to 2.0 leaf stage of Digitaria ciliaris, 3 weeks, 25° C.
Procedure: as §3

Digitaria ciliaris [7] = experiment: Weed foliar treatment test (Test 4, higher leaf stage); conditions: 10 g a.i./10a; foliar spray at 4.0 to 5.0 leaf stage of Digitaria ciliaris (plant height 10 cm to 15 cm); 20 days, 25° C.
Procedure: (§4) Evaluation of herbicidal efficacy was carried out by comparing growth inhibition rate (%) with an untreated group, while evaluation of chemical damage was carried out by comparing growth inhibition rate (%) with the state of a complete eradication group, and were evaluated at 11 levels indicated below. • 0 (exponent): 0% to less than 10% (growth inhibition rate) • 1: 10% to less than 20% • 2: 20% to less than 30% • 3: 30% to less than 40% • 4: 40% to less than 50% • 5: 50% to less than 60% • 6: 60% to less than 70% • 7: 70% to less than 80% • 8: 80% to less than 90% • 9: 90% to less than 100% • 10: 100% Field soil was filled into a 1/4500 are pot followed by seeding with Digitaria ciliaris and Galinsoga parviflora, covering with soil and cultivating in a glass greenhouse at an average atmospheric temperature of 25° C. Wettable powders of Target Compound (I) shown, in Table 1 prepared in compliance with the preparation examples were diluted with water to the prescribed amount of chemical and uniformly sprayed onto the weeds using 100 liters of sprayed water per 10 are when Digitaria ciliaris had grown to the 4.0 to 5.0 leaf stage (plant height: 10 cm to 15 cm). After treating for 20 days in a glass greenhouse at an average atmospheric temperature of 25° C., the herbicidal efficacy thereof was investigated. Evaluation of herbicidal efficacy was carried out in the same manner as the above-mentioned Test Example 1.

Galinsoga parviflora = experiment: as above; conditions: 10 g a.i./10a; foliar spray at 4.0 to 5.0 leaf stage of Digitaria ciliaris; 20 days, 25° C.
Procedure: as §4

| SMILES | herbicidal efficacy (growth inhibition rate level), Echinochloa crus-galli (Echinochloa crus-galli; 1 g a.i./10a) | herbicidal efficacy (growth inhibition rate level), Echinochloa crus-galli (Echinochloa crus-galli; 5 g a.i./10a) | herbicidal efficacy (growth inhibition rate level), Monochoria vaginalis (Monochoria vaginalis; 1 g a.i./10a) | herbicidal efficacy (growth inhibition rate level), Monochoria vaginalis (Monochoria vaginalis; 5 g a.i./10a) | herbicidal efficacy (growth inhibition rate level), Scirpus juncoides (Scirpus juncoides; 1 g a.i./10a) | herbicidal efficacy (growth inhibition rate level), Scirpus juncoides (Scirpus juncoides; 5 g a.i./10a) | chemical damage (growth inhibition rate level), Oryza sativa (Oryza sativa; 1 g a.i./10a) | chemical damage (growth inhibition rate level), Oryza sativa (Oryza sativa; 5 g a.i./10a) | herbicidal efficacy (growth inhibition rate level), Amaranthus retroflexus (Amaranthus retroflexus [1]; 5 g a.i./10a) | herbicidal efficacy (growth inhibition rate level), Amaranthus retroflexus (Amaranthus retroflexus [1]; 10 g a.i./10a) | herbicidal efficacy (growth inhibition rate level), Chenopodium album (Chenopodium album [2]; 5 g a.i./10a) | herbicidal efficacy (growth inhibition rate level), Chenopodium album (Chenopodium album [2]; 10 g a.i./10a) | herbicidal efficacy (growth inhibition rate level), Digitaria ciliaris (Digitaria ciliaris [3]; 5 g a.i./10a) | herbicidal efficacy (growth inhibition rate level), Digitaria ciliaris (Digitaria ciliaris [3]; 10 g a.i./10a) | herbicidal efficacy (growth inhibition rate level), Amaranthus retroflexus (Amaranthus retroflexus [4]; 5 g a.i./10a) | herbicidal efficacy (growth inhibition rate level), Amaranthus retroflexus (Amaranthus retroflexus [4]; 10 g a.i./10a) | herbicidal efficacy (growth inhibition rate level), Chenopodium album (Chenopodium album [5]; 5 g a.i./10a) | herbicidal efficacy (growth inhibition rate level), Chenopodium album (Chenopodium album [5]; 10 g a.i./10a) | herbicidal efficacy (growth inhibition rate level), Digitaria ciliaris (Digitaria ciliaris [6]; 5 g a.i./10a) | herbicidal efficacy (growth inhibition rate level), Digitaria ciliaris (Digitaria ciliaris [6]; 10 g a.i./10a) | other results |
| --- | --- | --- | --- | --- | --- | --- | --- | --- | --- | --- | --- | --- | --- | --- | --- | --- | --- | --- | --- | --- | --- |
| CC(=O)Nc1c([N+](=O)[O-])cnn1-c1nn2c(c1Cl)CCCC2 [Control Agent 2.17] | 1 (1: 10% to less than 20%) | 1 (1: 10% to less than 20%) | 1 (1: 10% to less than 20%) | 2 (2: 20% to less than 30%) | 0 (0 (exponent): 0% to less than 10% (growth inhibition rate)) | 1 (1: 10% to less than 20%) | 0 (0 (exponent): 0% to less than 10% (growth inhibition rate)) | 1 (1: 10% to less than 20%) | 4 (4: 40% to less than 50%) | 5 (5: 50% to less than 60%) | 0 (0 (exponent): 0% to less than 10% (growth inhibition rate)) | 1 (1: 10% to less than 20%) | 0 (0 (exponent): 0% to less than 10% (growth inhibition rate)) | 1 (1: 10% to less than 20%) | 6 (6: 60% to less than 70%) | 6 (6: 60% to less than 70%) | 0 (0 (exponent): 0% to less than 10% (growth inhibition rate)) | 1 (1: 10% to less than 20%) | 2 (2: 20% to less than 30%) | 2 (2: 20% to less than 30%) | herbicidal efficacy (growth inhibition rate level), Digitaria ciliaris (Digitaria ciliaris [7]): 0 (0 (exponent): 0% to less than 10% (growth inhibition rate)); herbicidal efficacy (growth inhibition rate level), Galinsoga parviflora (Galinsoga parviflora): 5 (5: 50% to less than 60%) |
| N#Cc1cnn(-c2nn3c(c2Cl)CCCC3)c1NC(=O)CCl [Control Agent 1.9] | 2 (2: 20% to less than 30%) | 2 (2: 20% to less than 30%) | 2 (2: 20% to less than 30%) | 2 (2: 20% to less than 30%) | 0 (0 (exponent): 0% to less than 10% (growth inhibition rate)) | 1 (1: 10% to less than 20%) | 1 (1: 10% to less than 20%) | 1 (1: 10% to less than 20%) | 5 (5: 50% to less than 60%) | 6 (6: 60% to less than 70%) | 1 (1: 10% to less than 20%) | 2 (2: 20% to less than 30%) | 0 (0 (exponent): 0% to less than 10% (growth inhibition rate)) | 1 (1: 10% to less than 20%) | 6 (6: 60% to less than 70%) | 6 (6: 60% to less than 70%) | 1 (1: 10% to less than 20%) | 2 (2: 20% to less than 30%) | 2 (2: 20% to less than 30%) | 2 (2: 20% to less than 30%) | herbicidal efficacy (growth inhibition rate level), Digitaria ciliaris (Digitaria ciliaris [7]): 1 (1: 10% to less than 20%); herbicidal efficacy (growth inhibition rate level), Galinsoga parviflora (Galinsoga parviflora): 5 (5: 50% to less than 60%) |
